Where two headings read alike, the source gives them in different places. Numbered stars: 1 amine (or outer) side, 2 acyl side, 3 side chain; on linkers, the order of the positions; unused ones are H or OH. Square brackets hold non-standard residues; d marks the D form. Peptide text beside a SMILES is read from it. * marks the point of attachment. X3 = CC(=O)N[C@H]1[C@H](O[C@H]2[C@H](O)[C@@H](O)[C@H](O[C@H]3[C@@H](O)[C@@H](CO)O[C@@H](O[C@H]4[C@H](O)[C@@H](O)[C@H](O[C@H]5[C@@H](O)[C@@H](CO)O[C@@H](O[C@H]6[C@H](O)[C@@H](O)[C@H](O[C@H]7[C@@H](O)[C@@H](CO)O[C@@H](O[C@H]8[C@H](O)[C@@H](O)[C@H](O[C@H]9[C@@H](O)[C@@H](CO)O[C@@H](O[C@H]%10[C@@H](O)[C@@H](CO)O[C@@H](O[C@@H]%11CO[C@@H](OC[C@H](N[*:1])C(=O)[*:2])[C@H](O)[C@H]%11O)[C@@H]%10O)[C@@H]9O)O[C@@H]8C(=O)O)[C@@H]7NC(C)=O)O[C@@H]6C(=O)O)[C@@H]5NC(C)=O)O[C@@H]4C(=O)O)[C@@H]3NC(C)=O)O[C@@H]2C(=O)O)O[C@H](CO)[C@H](O)[C@@H]1O[C@@H]1O[C@H](C(=O)O)[C@@H](O)[C@H](O)[C@H]1O; X2 = CC(=O)N[C@H]1[C@H](O[C@H]2[C@H](O)[C@@H](O)[C@H](O[C@H]3[C@@H](O)[C@@H](CO)O[C@@H](O[C@H]4[C@@H](O)[C@@H](CO)O[C@@H](O[C@@H]5CO[C@@H](OC[C@H](N[*:1])C(=O)[*:2])[C@H](O)[C@H]5O)[C@@H]4O)[C@@H]3O)O[C@@H]2C(=O)O)O[C@H](CO)[C@H](OS(=O)(=O)O)[C@@H]1O[C@@H]1O[C@H](C(=O)O)[C@@H](O[C@@H]2O[C@H](CO)[C@H](O)[C@H](O[C@@H]3O[C@H](C(=O)O)[C@@H](O)[C@H](O)[C@H]3O)[C@H]2NC(C)=O)[C@H](O)[C@H]1O; X4 = O=C(O)[C@H]1O[C@@H](O[C@H]2[C@@H](O)[C@@H](CO)O[C@@H](O[C@H]3[C@@H](O)[C@@H](CO)O[C@@H](O[C@@H]4CO[C@@H](*)[C@H](O)[C@H]4O)[C@@H]3O)[C@@H]2O)[C@H](O)[C@@H](O)[C@@H]1O
Molecular target: T1, Human Neutrophil Cathepsin G (Homo sapiens, UniProt P08311)
T1 construct: Human Neutrophil Cathepsin G was purchased from Athens; purchased Athens Research & Technology, Inc. (Athens, Georgia)
T1 sequence (P08311 21-243 limits assumed): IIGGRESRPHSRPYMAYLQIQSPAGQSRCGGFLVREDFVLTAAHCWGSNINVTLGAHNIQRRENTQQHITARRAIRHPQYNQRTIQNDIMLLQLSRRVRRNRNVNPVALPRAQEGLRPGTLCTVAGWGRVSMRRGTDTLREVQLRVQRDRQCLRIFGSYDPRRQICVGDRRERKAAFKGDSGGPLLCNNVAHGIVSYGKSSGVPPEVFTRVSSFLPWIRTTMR
Assay: BLI (biolayer interferometry) binding assay of immobilized biotinylated compounds with Cathepsin G
From the text: With structurally defined glycopeptides in hand, we aim to better understand the structural features needed for bikunin glycopeptide binding. Cathepsin G (CatG), a neutrophil serine protease, plays a crucial role in regulating various physiological processes, including inflammation, digestion, smooth muscle contraction, and tissue remodeling.[64] While CatG has been reported to interact with CSPG, the structural requirement of CSPG binding has not been established.[25] To measure the binding affinity towards CatG, peptides 5 and glycopeptides 10, 18–21 were biotinylated and immobilized on streptavidin coated sensors for biolayer interferometry (BLI) studies. Biotinylated 50 kDa CS and CS-A were also immobilized on the sensors for comparison. […]
General procedure of glycopeptide biotinylation
To a solution of peptide or glycopeptide in DMSO/H 2O (1/1, 0.1 ml) was added NHS-LC-Biotin (4 equiv.) and diisoproylethylamine (pH ~ 8.5). The reaction was incubated at 37 °C for 2 h. Then the mixture was dried in vacuo and purified by HPLC.
General procedure for BLI binding assay
The binding assay was performed on the Octet K2 System (Pall ForteBio). The biotinylated compounds were incubated with streptavidin (SA) sensors for 2 min. The sensor was then balanced in the assay buffer (PBS containing 0.005% P20) and dipped into Cathepsin G solution in assay buffer at 2000 nM, 1000 nM, 500 nM, 250 nM concentrations.
After 5 min of association, the sensor was brought back to the previous assay buffer for a 5 min dissociation step. At the end of the assay, the sensor was regenerated in 2 M NaCl to remove the bound protein. Each measurement was repeated 3 times on the same sensor. The control assay was performed with another sensor loaded with a 2 mM biotin solution.
Figure S3. Binding of peptide and glycopeptides a) 5, b) 10 , c) 18 , d) 19 , e) 20 , f) 21 , g) commercially available biotinylated 50 kDa CS, and h) 50 kDa CS-A to neutrophil Cathepsin G as measured by BLI ( a-h respectively). The biotinylated compounds (50 nM) were immobilized on streptavidin coated biosensors, and human neutrophil Cathepsin G was captured on biosensors with four concentrations at 2000 nM, 1000 nM, 500 nM, 250 nM.
Fitting curves were shown in red lines. […]

[1] = biotinylated compounds immobilized on streptavidin sensors, Cathepsin G at 2000, 1000, 500, 250 nM in PBS containing 0.005% P20, read-out: KD (nM) with Cathepsin G

Row | SMILES | Kd [1] [nM] | Kd (read-out: KD (nM) with Cathepsin G, biotinylated compounds immobilized on streptavidin sensors, Cathepsin G at 2000, 1000, 500, 250 nM in PBS containing 0.005% P20) [nM]
1 | CC(C)C[C@H](NC(=O)[C@H](CCC(N)=O)NC(=O)CNC(=O)CNC(=O)CNC(=O)[C@H](CO[C@@H]1OC[C@@H](O[C@@H]2O[C@H](CO)[C@H](O)[C@H](O[C@@H]3O[C@H](CO)[C@H](O)[C@H](O[C@@H]4O[C@H](C(=O)O)[C@@H](O)[C@H](O)[C@H]4O)[C@H]3O)[C@H]2O)[C@H](O)[C@H]1O)NC(=O)CNC(=O)[C@H](CCC(=O)O)NC(=O)[C@H](CCC(=O)O)NC(=O)[C@H](CCC(=O)O)NC(=O)[C@H](CCC(N)=O)NC(=O)[C@@H]1CCCN1C(=O)[C@H](CC(C)C)NC(=O)[C@@H](NC(=O)[C@H](C)N)C(C)C)C(=O)N[C@H](C(=O)N[C@H](C(=O)N[C@@H](CCC(=O)O)C(=O)N[C@H](C(=O)N[C@H](C(=O)N[C@@H](CCCCN)C(=O)N[C@@H](CCCCN)C(=O)N[C@@H](CCC(=O)O)C(=O)N[C@@H](CC(=O)O)C(=O)N[C@@H](CO)C(=O)O)[C@@H](C)O)C(C)C)[C@@H](C)O)C(C)C [Compound 10] (H-AVLPQEEEGS(X4)GGGQLVTEVTKKEDS-OH) | 650 ± 80 | 
2 | CC(=O)N[C@H]1[C@H](O[C@H]2[C@H](O)[C@@H](O)[C@H](O[C@H]3[C@@H](O)[C@@H](CO)O[C@@H](O[C@H]4[C@H](O)[C@@H](O)[C@H](O[C@H]5[C@@H](O)[C@@H](CO)O[C@@H](O[C@H]6[C@H](O)[C@@H](O)[C@H](O[C@H]7[C@@H](O)[C@@H](CO)O[C@@H](O[C@H]8[C@H](O)[C@@H](O)[C@H](O[C@H]9[C@@H](O)[C@@H](CO)O[C@@H](O[C@H]%10[C@@H](O)[C@@H](CO)O[C@@H](O[C@@H]%11CO[C@@H](OC[C@H](NC(=O)CNC(=O)[C@H](CCC(=O)O)NC(=O)[C@H](CCC(=O)O)NC(=O)[C@H](CCC(=O)O)NC(=O)[C@H](CCC(N)=O)NC(=O)[C@@H]%12CCCN%12C(=O)[C@H](CC(C)C)NC(=O)[C@@H](NC(=O)[C@H](C)N)C(C)C)C(=O)NCC(=O)NCC(=O)NCC(=O)N[C@@H](CCC(N)=O)C(=O)N[C@@H](CC(C)C)C(=O)N[C@H](C(=O)N[C@H](C(=O)N[C@@H](CCC(=O)O)C(=O)N[C@H](C(=O)N[C@H](C(=O)N[C@@H](CCCCN)C(=O)N[C@@H](CCCCN)C(=O)N[C@@H](CCC(=O)O)C(=O)N[C@@H](CC(=O)O)C(=O)N[C@@H](CO)C(=O)O)[C@@H](C)O)C(C)C)[C@@H](C)O)C(C)C)[C@H](O)[C@H]%11O)[C@@H]%10O)[C@@H]9O)O[C@@H]8C(=O)O)[C@@H]7NC(C)=O)O[C@@H]6C(=O)O)[C@@H]5NC(C)=O)O[C@@H]4C(=O)O)[C@@H]3NC(C)=O)O[C@@H]2C(=O)O)O[C@H](CO)[C@H](O)[C@@H]1O[C@@H]1O[C@H](C(=O)O)[C@@H](O)[C@H](O)[C@H]1O [Compound 18] (H-AVLPQEEEG[X3]GGGQLVTEVTKKEDS-OH; N-terminus and C-terminus assumed) | 490 ± 18 | 
3 | CC(=O)N[C@H]1[C@H](O[C@H]2[C@H](O)[C@@H](O)[C@H](O[C@H]3[C@@H](O)[C@@H](CO)O[C@@H](O[C@H]4[C@@H](O)[C@@H](CO)O[C@@H](O[C@@H]5CO[C@@H](OC[C@H](NC(=O)CNC(=O)[C@H](CCC(=O)O)NC(=O)[C@H](CCC(=O)O)NC(=O)[C@H](CCC(=O)O)NC(=O)[C@H](CCC(N)=O)NC(=O)[C@@H]6CCCN6C(=O)[C@H](CC(C)C)NC(=O)[C@@H](NC(=O)[C@H](C)N)C(C)C)C(=O)NCC(=O)NCC(=O)NCC(=O)N[C@@H](CCC(N)=O)C(=O)N[C@@H](CC(C)C)C(=O)N[C@H](C(=O)N[C@H](C(=O)N[C@@H](CCC(=O)O)C(=O)N[C@H](C(=O)N[C@H](C(=O)N[C@@H](CCCCN)C(=O)N[C@@H](CCCCN)C(=O)N[C@@H](CCC(=O)O)C(=O)N[C@@H](CC(=O)O)C(=O)N[C@@H](CO)C(=O)O)[C@@H](C)O)C(C)C)[C@@H](C)O)C(C)C)[C@H](O)[C@H]5O)[C@@H]4O)[C@@H]3O)O[C@@H]2C(=O)O)O[C@H](CO)[C@H](OS(=O)(=O)O)[C@@H]1O[C@@H]1O[C@H](C(=O)O)[C@@H](O[C@@H]2O[C@H](CO)[C@H](O)[C@H](O[C@@H]3O[C@H](C(=O)O)[C@@H](O)[C@H](O)[C@H]3O)[C@H]2NC(C)=O)[C@H](O)[C@H]1O [Compound 19] (H-AVLPQEEEG[X2]GGGQLVTEVTKKEDS-OH; N-terminus and C-terminus assumed) |  | 49 ± 5

Reference: PMC11772155, “Solid-Phase-Supported Chemoenzymatic Synthesis and Analysis of Chondroitin Sulfate Proteoglycan Glycopeptides” (Angewandte Chemie (International ed. in English), 2024)
